In US8178522B2, “Thiazoles” (Hoffmann-La Roche Inc., priority 2009, dated 2012):

The molecules below were run against T1, GABA A α5 (α5β3γ2) (Homo sapiens, UniProt P18507+P31644) (assay: [3H]flumazenil competition binding, human GABA A α5 receptor). Conditions: human receptor α5β3γ2 transiently transfected in HEK293 cells; competition for [3H]flumazenil 0.5 nM; 1 hour at 4° C.; means of two determinations; read-out: hKi GABA A α5.
T1 construct: expressed in transfected cells; host or cells: HEK293, transiently transfected; membrane preparation
Procedure: Membrane Preparation and Binding Assay
The affinity of compounds at GABA A receptor subtypes was measured by competition for [3H]flumazenil (85 Ci/mmol; Roche) binding to HEK293 cells expressing rat (stably transfected) or human (transiently transfected) receptors of compositional α1β3γ2, α2β3γ2, α3β3γ2 and α5β3γ2.
Cell pellets were suspended in Krebs-tris buffer (4.8 mM KCl, 1.2 mM CaCl2, 1.2 mM MgCl2, 120 mM NaCl, 15 mM Tris; pH 7.5; binding assay buffer), homogenized by polytron for ca. 20 sec on ice and centrifuged for 60 min at 4° C. (50000 g; Sorvall, rotor: SM24=20000 rpm). The cell pellets were re-suspended in Krebs-tris buffer and homogenized by polytron for ca. 15 sec on ice. Protein was measured (Bradford method, Bio-Rad) and aliquots of 1 mL were prepared and stored at −80° C.
Assays were incubated to equilibrium for 1 hour at 4° C. and harvested onto GF/C uni-filters (Packard) by filtration using a Packard harvester and washing with ice-cold wash buffer (50 mM Tris; pH 7.5). After drying, filter-retained radioactivity was detected by liquid scintillation counting. Ki values were calculated using Excel-Fit (Microsoft) and are the means of two determinations.

SMILES | Ki [nM]
CCNC(=O)c1cnc(/C=C/c2c(-c3ccc(F)cn3)noc2C)s1 [Example 87, 2-{(E)-2-[3-(5-Fluoro-pyridin-2-yl)-5-methyl-isoxazol-4-yl]-vinyl}-thiazole-5-carboxylic acid ethylamide] | 4
CCCCc1noc(C)c1CCc1nc(C)c(C(=O)NCC(C)O)s1 (centres unmarked) [Example 56, 2-[2-(3-Butyl-5-methyl-isoxazol-4-yl)-ethyl]-4-methyl-thiazole-5-carboxylic acid (2-hydroxy-propyl)-amide] | 16.9
Cc1onc(-c2ccccc2)c1/C=C/c1ncc(C(=O)NC(C)CO)s1 (centres unmarked) [Example 66, 2-[(E)-2-(5-Methyl-3-phenyl-isoxazol-4-yl)-vinyl]-thiazole-5-carboxylic acid (2-hydroxy-1-methyl-ethyl)-amide] | 1.8
Cc1onc(-c2ccc(F)cn2)c1/C=C/c1ncc(C(=O)NCC2CC2)s1 [Example 82, 2-{(E)-2-[3-(5-Fluoro-pyridin-2-yl)-5-methyl-isoxazol-4-yl]-vinyl}-thiazole-5-carboxylic acid cyclopropylmethyl-amide] | 4.7
Cc1nc(/C=C/c2c(-c3ccccc3)noc2C)sc1C(=O)NC1CCOC1 (centres unmarked) [Example 69, 4-Methyl-2-[(E)-2-(5-methyl-3-phenyl-isoxazol-4-yl)-vinyl]-thiazole-5-carboxylic acid (tetrahydro-furan-3-yl)-amide] | 0.3
Cc1nc(CCc2c(-c3ccc(F)cn3)noc2C)sc1C(=O)NC1CCOCC1 [Example 31, 2-{2-[3-(5-Fluoro-pyridin-2-yl)-5-methyl-isoxazol-4-yl]ethyl}-4-methyl-thiazole-5-carboxylic acid (tetrahydro-pyran-4-yl)-amide] | 5.2
CCNC(=O)c1sc(CCc2c(-c3ccccn3)noc2C)nc1C [Example 15, 4-Methyl-2-[2-(5-methyl-3-pyridin-2-yl-isoxazol-4-yl)-ethyl]-thiazole-5-carboxylic acid ethylamide] | 12

Second part, the molecule after the results:

Ki [nM] | SMILES
35.3 | Cc1nc(/C=C/c2conc2-c2ccc(F)cn2)sc1C(=O)NC1CC1 [Example 91, 2-{(E)-2-[3-(5-Fluoro-pyridin-2-yl)-isoxazol-4-yl]vinyl}-4-methyl-thiazole-5-carboxylic acid cyclopropylamide]
22.8 | Cc1onc(-c2ccc(F)cn2)c1/C=C/c1ncc(C(=O)N2CCSCC2)s1 [Example 89, (2-{(E)-2-[3-(5-Fluoro-pyridin-2-yl)-5-methyl-isoxazol-4-yl]-vinyl}-thiazol-5-yl)-thiomorpholin-4-yl-methanone]
2.4 | CCCCc1noc(C)c1/C=C/c1nc(C)c(C(=O)NCC(F)(F)F)s1 [Example 119, 2-[(E)-2-(3-Butyl-5-methyl-isoxazol-4-yl)-vinyl]-4-methyl-thiazole-5-carboxylic acid (2,2,2-trifluoro-ethyl)-amide]
5.7 | CCCCc1noc(C)c1/C=C/c1nc(C)c(C(=O)NC)s1 [Example 122, 2-[(E)-2-(3-Butyl-5-methyl-isoxazol-4-yl)-vinyl]-4-methyl-thiazole-5-carboxylic acid methylamide]
2.1 | CCCCc1noc(C)c1/C=C/c1nc(C)c(C(=O)N[C@@H](CC)CO)s1 [Example 106, 2-[(E)-2-(3-Butyl-5-methyl-isoxazol-4-yl)-vinyl]-4-methyl-thiazole-5-carboxylic acid ((S)-1-hydroxymethyl-propyl)-amide]
27.5 | Cc1onc(-c2ccccc2)c1CNc1ncc(C(=O)NC2CCOCC2)s1 [Example 136, 2-[(5-Methyl-3-phenyl-isoxazol-4-ylmethyl)-amino]-thiazole-5-carboxylic acid (tetra-hydro-pyran-4-yl)-amide]
5.5 | CCCCc1noc(C)c1/C=C/c1nc(C)c(C(=O)N[C@H]2CCC[C@@H]2O)s1 [Example 111, 2-[(E)-2-(3-Butyl-5-methyl-isoxazol-4-yl)-vinyl]-4-methyl-thiazole-5-carboxylic acid ((1S,2S)-2-hydroxy-cyclopentyl)-amide]
